Structures are written as SMILES.

This is an account of results in patent publication US20170202932A1, “METHODS FOR INHIBITING NEURON APOPTOSIS AND NECROSIS” (NEWSOUTH INNOVATIONS PTY LIMITED, priority 2012, published 2017).

Assay [1] deals with mouse cerebellar brain slices. The assay is described as follows: Oxygen glucose deprivation (OGD) in organotypic cerebellar brain slices, propidium iodide staining. In kind it is cell-based. Particulars: genistein 200 μM. As to the method:
TRPC3c-mediated brain injury arising from transient oxygen glucose deprivation (OGD) was evaluated in organotypic cerebellar brain slices using the TRPC channel blocker Genistein. The brain slices (400 μm) were prepared as described in Example 5. Mice ([…] strain, 6-8 weeks old) were anaesthetized with pentobarbital and decapitated. The brain was removed and submerged in ice cold modified artificial cerebral spinal fluid (ACSF) solution containing 4 mM KCl, 5 mM MgCl2, 1 mM CaCl2, 26 mM NaHCO3, 10 mM glucose, 246 mM sucrose equilibrated with 95% CO2, 5% O2. Slices were cut with a VT1200 vibratome (Leica, Germany) and were allowed to recover in culture medium (75% Minimum Essential Medium (MEM), 25% heat-inactivated horse serum, 25 mM HEPES, 1 mM glutamine, 27.7 mM glucose) for at least 1 h in a tissue culture incubator (37° C., 5% CO2 in air). Hurtado de Mendoza et al. (2011) J Vis Exp. (51). (pii):2564).
For OGD-induced neuronal loss, the brain slices were placed in an anaerobic chamber (Coy Laboratory Products, USA; 100% N2) in OGD medium (75% MEM, 25% Hanks Buffered Salt Solution, 1 mM glutamine) Radley et a. (2012). Neurosci Lett. 506 (1):131-5). Controls included slices placed directly into culture medium in a tissue culture incubator (37° C., 5% CO2 in air). Slices were exposed to OGD for 0, 15 and 30 minutes, with or without 200 μM genistein (n=2 for each condition). […]

In assay [2] the target is T1, recombinant mouse TRPC3c channels (Mus musculus, UniProt Q9QZC1, DEL811-838).
T1 construct: expressed in transfected cells; host or cells: HEK293 cells, stably transfected (pIRES-DsRed2 vector)
T1 sequence (Q9QZC1 with tags, fused parts or gaps DEL811-838): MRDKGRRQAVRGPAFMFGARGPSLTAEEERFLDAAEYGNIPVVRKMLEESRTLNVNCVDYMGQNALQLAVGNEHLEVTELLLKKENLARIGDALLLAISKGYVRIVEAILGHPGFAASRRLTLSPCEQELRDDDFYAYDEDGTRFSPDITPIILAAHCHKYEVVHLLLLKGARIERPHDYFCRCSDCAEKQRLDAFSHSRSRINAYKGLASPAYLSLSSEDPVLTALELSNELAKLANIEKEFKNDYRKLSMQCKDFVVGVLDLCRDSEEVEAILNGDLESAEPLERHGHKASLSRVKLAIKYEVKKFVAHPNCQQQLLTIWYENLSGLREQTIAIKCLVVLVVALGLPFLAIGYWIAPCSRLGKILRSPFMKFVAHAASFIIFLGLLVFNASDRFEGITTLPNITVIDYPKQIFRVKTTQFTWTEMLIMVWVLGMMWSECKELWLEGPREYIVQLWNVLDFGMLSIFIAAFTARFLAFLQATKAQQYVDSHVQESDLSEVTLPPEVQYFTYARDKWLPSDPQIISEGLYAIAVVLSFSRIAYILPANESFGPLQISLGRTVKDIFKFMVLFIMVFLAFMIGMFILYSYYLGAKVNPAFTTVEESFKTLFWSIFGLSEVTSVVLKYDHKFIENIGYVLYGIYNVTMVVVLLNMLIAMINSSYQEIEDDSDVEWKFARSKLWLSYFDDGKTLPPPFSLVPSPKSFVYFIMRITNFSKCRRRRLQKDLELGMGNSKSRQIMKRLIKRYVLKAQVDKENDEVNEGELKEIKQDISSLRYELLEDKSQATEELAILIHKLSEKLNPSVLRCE
The assay is described as follows: Whole-cell patch clamp of CCh-activated current, HEK293 cells expressing TRPC3c. The class given is cell-based. Particulars: TRPC3c+CCh (100 μM)+genistein 200 μM pre-incubation; Vh=−50 mV; n=7; CCh alone −809.4±36.9 pA. As to the method: For whole cell patch clamp recordings, HEK293 cells stably expressing recombinant TRPC3 ion channels were grown to 85-95% confluence on a coverslip coated with poly-D-lysine and collagen (both from Sigma-Aldrich, U.S.A.). Recording pipettes were made from borosilicate glass (GC120TF-10, Harvard Apparatus, U.K.). The pipette resistance was at 3-6 MΩ (PC-10, Narishige, Japan). The internal solution had the composition: 130 mM CsCl, 2 mM MgCl2, 10 mM EGTA, 0.3 mM ATP, 0.03 mM GTP, pH at 7.3 adjusted with CsOH. Cells on the coverslip were placed in a microchamber on an inverted microscope (Leica DMIL, Germany) and superfused with HEPES-buffered physiological salt solution (HPSS) containing 120 mM NaCl, 5.4 mM KCl, 2 mM CaCl2, 1.13 mM MgCl2, 10 mM glucose, 20 mM HEPES (pH 7.4) at room temperature.
Whole cell patch clamp recordings were made following a gigaseal, using an Axopatch 200 patch clamp amplifier (Molecular Devices, U.S.A.) controlled by software (pClamp 10.2, Molecular Devices, U.S.A.). Cell capacitance was cancelled and series resistance was compensated by ˜90%. […] Carbachol (used to activate TRPC3 channels via the endogenously expressed M3 AChR) was purchased from Sigma-Aldrich (U.S.A.). DHPG (—(S)-2-amino-2-(3,5-dihydroxyphenyl)acetic acid), a group I mGluR agonist (Schoepp et al. 1994), was purchased from Tocris Bioscience (U.K.). […]
(Patch clamp records ionic current or voltage across a cell membrane.)

Consider `O=c1c(-c2ccc(O)cc2)coc2cc(O)cc(O)c12` [genistein, 4′, 5,7-trihydroxyisoflavone], for which, in assay [1], the “propidium iodide fluorescence in granule cell layer and molecular layer after OGD” value was “reduced propidium iodide fluorescence”. In addition, in assay [1] (15 mins and 30 mins OGD, n=2 slices per condition), the “neuronal loss and oedema in the Purkinje cell layer after OGD” value was “provided protection from the neuronal loss and oedema in the PCL”. The “mean peak CCh-activated whole-cell inward current” value in assay [2] is on record as −35.4±8.1 pA.
